Assay results taken from patent US10369089B2, “Iron oxide nanoparticles and methods of use thereof” (THE TRUSTEES OF THE UNIVERSITY OF PENNSYLVANIA, priority 2015, dated 2019).

What was measured:
[1] = test system: gingival and palatal tissues; set-up: species or system Sprague-Dawley rats; conditions: rat, in vivo
Excerpt: Each group was provided with the National Institutes of Health cariogenic diet 2000 and 5% sucrose water ad libitum. The experiment proceeded for 3 weeks. All animals were weighed weekly and their physical appearance was noted daily. All animals gained weight equally among the experimental groups and remained in good health during the experimental period. At the end of the experimental period, the animals were sacrificed and the jaws were surgically removed and dissected. All of the jaws were defleshed and the teeth were prepared for caries scoring according to Larson's modification of Keyes' system disease (see Larson, Animal models in cariology: symposium and workshop proceedings special supplement of microbiology abstracts, 1981; Bowen, Odontology, 2013; […] et al., Infect Immun, 2014; Horev, ACS Nano, 2015). Determination of the caries score of the codified jaws was performed by one calibrated examiner. Furthermore, both the gingival and palatal tissues were collected and processed for hematoxylin and eosin (HE) staining for histopathological analysis.

[2] = test system: insoluble and soluble EPS; test: EPS degradation within biofilms; assay type: cell-based, Streptococcus mutans UA159; conditions: 30 min after H2O2 exposure; vs control
Excerpt: Biofilms were formed on saliva-coated hydroxyapatite (sHA) surfaces (tooth enamel-like material) using Streptococcus mutans, a well-established biofilm-forming, acidogenic and matrix-producing oral pathogen (FIG. 9). The hydroxyapatite discs (surface area, 2.7±0.2 cm^2) were purchased from Clarkson Chromatography and the bacteria strain, Streptococcus mutans UA159, was purchased from ATCC. The biofilm method is based on the saliva-coated hydroxyapatite (sHA) disc model (see Xiao et al., PLoS Pathog. 2012; Klein et al., J Vis Exp. 2011; Falsetta et al., Infect Immun., 2014; Koo et al., J Bacteriol, 2010; Koo et al., J Antimicrob Chemother, 2003). […] The biofilms were collected and analyzed at specific time points (19 h, 29 h and 43 h) by means of confocal fluorescence imaging, microbiological and biochemical analyses (Xiao et al., PLoS Pathog. 2012; Klein et al., J Vis Exp. 2011; Falsetta et al., Infect Immun., 2014; Koo et al., J Bacteriol, 2010; Koo et al., J Antimicrob Chemother, 2003).
To investigate whether CAT-NP-mediated H2O2 catalysis and generation of free-radicals in situ can kill embedded bacteria and degrade the EPS-matrix within biofilms, the following experiments were performed. […] Biofilms treated with CAT-NPs (0.5 mg/ml) were immediately exposed to H2O2 (0.1 to 1%, v/v) and the number of viable cells and EPS content were determined (FIG. 13A and FIG. 14). […]

[3] = Degradation of purified glucans produced by GtfB and GtfD; assay type: biochemical; conditions: 0.1 M NaOAc pH 4.5, 37° C., 30 min
Protocol: Given that free-radicals produced from H2O2 catalysis can also degrade polysaccharides in vitro (Gao et al., Nanoscale, 2014), the amount of EPS in the CAT-NP-treated biofilms was analyzed following exposure to H2O2. For assessment of EPS degradation, 100 μg of (insoluble or soluble) glucans produced by purified glucosyltransferases (GtfB or GtfD) (Koo et al., Antimicrob Agents Chemother, 2002) were mixed with each of the treatment solutions (in 0.1 M NaOAc, pH 4.5) and incubated at 37° C. for 30 min. The glucans were manufactured as follows. Each of the Gtf enzymes (10 U) were mixed with a sucrose substrate buffer (100 mM sucrose, 20 μM dextran 9,000, 50 mM KCl, 1.0 mM KPO4, 1.0 mM CaCl2 and 0.1 mM MgCl2, pH 6.5) and incubated for 4 h at 37° C. After incubation, the glucans produced were collected by centrifugation, washed and the total amounts were determined by standard phenol-sulfuric acid colorimetric assay (Koo et al., J Antimicrob Chemother, 2003; Koo et al., Antimicrob Agents Chemother, 2002). One hundred micrograms of glucan was mixed with each of the treatment solutions (total reaction volume of 300 μl in 0.1 M NaOAc, pH 4.5) and incubated at 37° C. for 30 min with rocking. After incubation, the amount of reducing sugars was determined by Somogyi-Nelson colorimetric assay.

[4] = test system: S. mutans biofilms; test: Biofilm disruption after twice daily topical treatment (confocal microscopy); assay type: cell-based, Streptococcus mutans UA159; conditions: CAT-NP 0.5 mg/ml, H2O2 1%, in vitro
Excerpt: To determine the retention and the spatial distribution of CAT-NPs within an intact biofilm 3D architecture, multiphoton confocal microscopy and computational analysis were used (Xiao et al., PLoS Pathog. 2012; Klein et al., J Vis Exp, 2011; Koo et al., J Bacteriol, 2010). The exopolysaccharides (EPS) (in red) were labeled using […] Alexa Fluor 647-labeled dextran conjugate (10 kDa; 647/668 nm; Molecular Probes Inc., Invitrogen Corp., Carlsbad, Calif., USA) and the bacterial cells (in green) were stained with 2.5 μM SYTO 9 (485/498 nm; Molecular Probes Inc.). The CAT-NPs (in white) were detected via their inherent non-linear optical property using multiphoton confocal microscopy (Xiao et al., PLoS Pathog, 2012; Klein et al., J Vis Exp, 2011; Liao et al., Adv Funct Mater, 2013; Koo et al., J Bacteriol, 2010; Liao et al., Adv Funct Mater, 2013). Imaging was performed using a Leica SP5 multiphoton confocal microscope with a 20× LPlan N (1.05 numerical aperture) water immersion objective lens. […] The confocal images were analyzed using software for simultaneous visualization and quantification of EPS, bacterial cells and CAT-NPs within the intact biofilms. […] COMSTAT and ImageJ were used for quantitative analysis as previously described (Xiao et al., PLoS Pathog. 2012; Klein et al., J Vis Exp. 2011; Koo et al., J Bacteriol, 2010). […]

[5] = test system: dental caries; test: Rodent model of dental caries; assay type: in vivo, Sprague-Dawley rats; conditions: rats, topical twice-daily for 3 weeks; vs. vehicle control
Protocol: In brief, animal experiments were performed on a well-established rodent model of dental caries (Bowen, Odontology, 2013; […] et al., Infect Immun, 2014; Horev, ACS Nano, 2015; Koo et al., J Dent Res, 2005). Briefly, Sprague-Dawley rats, 15 days old, were purchased with their dams from Harlan Laboratories (Madison, Wis., USA) and screened for infection with S. mutans. Any animals infected with S. mutans prior to inoculation were removed from the study. The animals were then infected orally using an actively growing (mid-logarithmic) culture of S. mutans UA159 and their infection was checked via oral swabbing. Infected animals were randomly placed into four treatment groups (12 animals/group) and their teeth were treated topically using a custom-made applicator twice daily. The treatment groups included: […] Agents were applied topically (orally-delivered; 100 μL per rat) twice-daily for 3 weeks, with brief exposures (30 s) to simulate clinical use. Each group was provided with the National Institutes of Health cariogenic diet 2000 and 5% sucrose water ad libitum. The experiment proceeded for 3 weeks. All animals were weighed weekly and their physical appearance was noted daily. All animals gained weight equally among the experimental groups and remained in good health during the experimental period. […]

Row | Compound | cytotoxic effects in gingival and palatal tissues (histopathology) [1] | amounts of insoluble and soluble EPS within biofilms [2] | degradation of glucans from GtfB and GtfD (glucose released) [3] | biofilm disruption (accumulation of bacterial cells and EPS-matrix) [4] | initiation and severity of carious lesions (caries scoring) [5]
1 | iron oxide nanoparticles [IO-NPs] | no cytotoxic effects |  |  |  | 
2 | OO [H2O2, hydrogen peroxide] | no cytotoxic effects | inability to reduce EPS within biofilms | failed to cleave either glucan | limited anti-biofilm effects | without significant effect
